Counter-ions that a name gives are not always drawn.
test system: HCT116; test: efficacy (fitted maximal change in viability relative to DMSO control); higher = less cytotoxic (negative = loss of viability); conditions: 48 h
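Note: Luminescence-based viability readout, five doses per compound, normalized against on-plate DMSO and empty-well controls, followed by dose-response curve fitting for every drug.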

| Structure (SMILES) | efficacy |
| --- | --- |
| COC(=O)Nc1nc2cc(C(=O)c3ccccc3)ccc2[nH]1 [Mebendazole] | -65.1% |
| COc1c(Cl)cc2c([nH]c3cnccc32)c1NC(=O)c1cccnc1C [MLN-120B] | -95.3% |
| Cc1ccc(C(=O)Nc2ccc([S+](=O)([O-])O)c3cc([S+](=O)([O-])O)cc([S+](=O)([O-])O)c23)cc1NC(=O)c1cccc(NC(=O)Nc2cccc(C(=O)Nc3cc(C(=O)Nc4ccc([S+](=O)([O-])O)c5cc([S+](=O)([O-])O)cc([S+](=O)([O-])O)c45)ccc3C)c2)c1 [Suramin sodium] | -20.9% |
| CN(C)[C@H]\1[C@@H]2C[C@H]3C(=C(O)\[C@]2(O)C(=O)\C(=C1O)C(N)=O)/C(=O)C4=C(O)C=CC=C4[C@@]3(C)O [Tetracycline hydrochloride] | 8.73% |
| C[C@@H](CN1CC(=O)NC(=O)C1)N1CC(=O)NC(=O)C1 [Dexrazoxane hydrochloride] | -22.3% |
| CO[C@@H]1COCC[C@@H]1N[C@@H]1CC[C@@](C(=O)N2CCc3ncc(C(F)(F)F)cc3C2)(C(C)C)C1 [MK-0812] | -11.1% |
| Nc1ncnc2c1ncn2[C@@H]1O[C@H](CO)[C@@H](O)[C@@H]1O [Vidarabine] | -11.4% |
| N#Cc1ccc(NC(=O)Nc2ccccc2Br)c2nn[nH]c12 | -26% |
| N#Cc1ccc(C2CCCc3cncn32)cc1 (stereo not drawn) [Fadrozole] | -10.8% |
| CN[C@H](CC(C)C)C(=O)N[C@H]1C(=O)N[C@@H](CC(N)=O)C(=O)N[C@H]2C(=O)N[C@H]3C(=O)N[C@H](C(=O)N[C@H](C(=O)O)c4cc(O)cc(O)c4-c4cc3ccc4O)[C@H](O)c3ccc(c(Cl)c3)Oc3cc2cc(c3O[C@@H]2O[C@H](CO)[C@@H](O)[C@H](O)[C@H]2O[C@H]2C[C@](C)(N)[C@H](O)[C@H](C)O2)Oc2ccc(cc2Cl)[C@H]1O [Vancomycin hydrochloride] | -27% |
| C=CC[N+]1([C@H]2C[C@H]3[C@@H]4CC[C@H]5C[C@H](O)[C@@H](N6CCOCC6)C[C@]5(C)[C@H]4CC[C@]3(C)[C@H]2OC(C)=O)CCCC1 [Rocuronium bromide] | -14.6% |
| CCCCC[C@H](O)/C=C/[C@H]1[C@H](O)CC(=O)[C@@H]1CCCCCCC(=O)O [Alprostadil] | -12.3% |
| C[S+]([O-])(=O)NC1=CC2=C(C=C1OC3=CC=CC=C3)C(=O)\C(=C/O2)NC=O [Iguratimod] | -14.8% |
| Cc1ccc(C(=O)c2cc(O)c(O)c([N+](=O)[O-])c2)cc1 [Tolcapone] | -83.1% |
| CC(C)(C)NC(=O)[C@H]1CC[C@H]2[C@@H]3CC[C@H]4NC(=O)\C=C/[C@]4(C)[C@H]3CC[C@]12C [Finasteride] | -16.1% |
| CC(C(=O)O)c1ccc(-c2ccccc2)c(F)c1 (stereo not drawn) [Flurbiprofen] | -9.87% |
| CC(C)[S+](=O)([O-])c1ccc2nccc(Nc3ccc4scnc4c3)c2c1 [GSK-872] | -37.8% |
| C[C@]12CC[C@H]3[C@@H](CCC/4=C/C(=O)CC[C@]34C)[C@@H]1CC[C@@H]2OC(=O)CCC5CCCC5 [Testosterone cypionate] | -12% |
| Oc1cc2c(cc1O)C1c3ccc(O)c(O)c3OCC1(O)C2 (stereo not drawn) [Hematoxylin] | -9.9% |
| COc1cc2c(cc1OC)CN(CCc1ccc(NC(=O)c3cccc4c(=O)c5cccc(OC)c5[nH]c34)cc1)CC2 [Elacridar] | -16.8% |
| COC[C@@H](c1ccc(C(F)(F)F)cc1)N1CCN(C2(C)CCN(C(=O)c3c(C)ncnc3C)CC2)C[C@@H]1C | -15.4% |
| CN(C)CC(C)(C)CNc1nn2c(-c3ccccc3)nnc2cc1C1CCC1 [Akt-I-1] | -8.48% |
| COc1cc2ncn(-c3cc(OCc4ccccc4[S+](C)(=O)[O-])c(C#N)s3)c2cc1OC [IKK-3 Inhibitor IX] | -13.8% |

| Structure (SMILES) | efficacy |
| --- | --- |
| N[S+]([O-])(=O)C1=C(Cl)C=C2\N=C/N[S+]([O-])(=O)C2=C1 [Chlorothiazide] | -4.38% |
| C=CC(=O)N[C@H]1CN(c2nc(Nc3cn(C)nc3OC)c3ncn(C)c3n2)C[C@@H]1F | -68% |
| CCC(=O)O[C@@]1(CC[C@H]2[C@@H]3CCC/4=C/C(=O)CC[C@]4(C)[C@H]3CC[C@]12C)C(=O)CO [17 alpha-propionate] | -15.6% |
| CCOC(=O)c1ccc(OC(=O)CCCCCNC(=N)N)cc1 [Gabexate mesilate] | 7.86% |
| O=C([C@@H](Cc1cccc(C(F)(F)F)c1)N[S+](=O)([O-])c1cc(F)c2c(c1)CCNC2)N1CCCC1 [(R)-PFI-2] | -23.9% |
| CC(C)(O)CCc1ccc(OCc2cc(-c3cccc(OC(F)F)c3)c3ncccc3c2)cc1 | -82% |
| CC[C@H](C)[N]1C=C(C)C2=C1C=C(C=C2C(=O)NC\C3=C(C)\C=C(\C)NC3=O)C4=CC=C(N=C4)N5CCNCC5 [GSK-126] | -125% |
| C[C@@H]1COCCN1C\2=C\C(=O)N\3CC[C@H](N(CC4=CN=CC(=C4)Cl)C3=N2)C(F)(F)F [SAR-405] | -26.6% |
| NC(=O)c1cnc(-c2ccc(C3(N)CCC3)cc2)c(-c2ccccc2)c1 [AZD-26] | -66.9% |
| CCCn1c(=O)c2[nH]c(-c3cnn(Cc4cccc(C(F)(F)F)c4)c3)nc2n(CC)c1=O [CVT-6883] | -14.4% |
| O=C(O)CCCCCC(=O)NN=C1CCCC1 [IDE-2] | -8.18% |
| COC1=C2C[C@H](C)C[C@H](OC)[C@H](O)[C@@H](C)/C=C(/C)[C@H](OC(N)=O)[C@@H](OC)/C=C\C=C(\C)C(=O)NC(=CC1=O)C2=O [Geldanamycin] | -57.3% |
| NC(=S)N/N=C/c1ncccc1N [Triapine] | -21.4% |
| C\C1=C(\C=C(\C#N)C(=O)N1)C2=CC=NC=C2 [Milrinone] | -8.82% |
| CN1CCN(c2ccc([N+](=O)[O-])c3no[n+]([O-])c23)CC1 | -19.8% |
| O=C(C[C@@H]1C/C=C\CCC(=O)O[C@H](c2ccccc2)CNC1=O)NCc1ccc(Cl)cc1 [Robotnikinin] | -22.6% |
| CCCCOc1nc(N)c2c(n1)N(Cc1cccc(CN3CCCC3)c1)CC(=O)N2 [Vesatolimod] | -47.6% |
| C[C@H](NC1=NC=NC2=C1[NH]C=N2)\C3=N\C4=C(C=C(F)C=C4)C(=O)N3C5=CC=CC=C5 [Acalisib] | -38.2% |
| CCCCOc1ccc(CC(=O)NO)cc1 [Bufexamac] | -14.9% |
| CC(=O)O[C@@]1(CC[C@H]2[C@@H]3\C=C(Cl)/C4=C/C(=O)[C@@H]5C[C@@H]5[C@]4(C)[C@H]3CC[C@]12C)C(C)=O [Cyproterone acetate] | -60.6% |
| COc1ccc([C@@H]2Sc3ccccc3N(CCN(C)C)C(=O)[C@@H]2OC(C)=O)cc1 [Diltiazem hydrochloride] | -17.5% |
| CN(C)C(=N)NC(=N)N [Metformin] | -21.8% |
| CCCOc1ccn2c(C(C)=O)cc(-c3ccccc3[S+](C)(=O)[O-])c2c1 [GSK-2801] | -30.1% |

| Structure (SMILES) | efficacy |
| --- | --- |
| CCC(=O)NC[C@H](Cc1ccc(OCCc2nc(-c3ccccc3)oc2C)cc1)N/C(C)=C\C(=O)c1ccc(C(F)(F)F)cc1 [GW-6471] | -30.2% |
| CC[C@]12CC[C@H]3[C@@H](CCC/4=C/C(=O)CC[C@H]34)[C@@H]1\C=C/[C@@]2(O)C#C [Gestodene] | -21.8% |
| N#Cc1ccc(Oc2ccc3c(c2)COB3O)cc1 [AN-2728] | -21.2% |
| Nc1nc(OCc2ccccc2)c2nc[nH]c2n1 [O6-Benzylguanine] | -34.3% |
| COc1cc(C[C@@H](CO)[C@H](CO)Cc2ccc(O)c(OC)c2)ccc1O [Secoisolariciresinol] | 9% |
| C=CC(=O)N1C[C@H](Nc2ncnc3[nH]ccc23)CC[C@@H]1C | -26.7% |
| O=C1Nc2ccccc2/C1=C1\Nc2ccccc2C1=O [Indirubin] | -9.8% |
| Clc1ccc(-c2nc3sccn3c2/C=N/OCc2ccc(Cl)c(Cl)c2)cc1 [CITCO] | -19.4% |
| Cc1noc(C)c1-c1ccc(-c2cc(C(N)=O)c(NC(N)=O)s2)c(O[C@H]2CCNC2)c1 [AZD-3264] | -40.3% |
| C[C@]12CCC3c4ccc(O)cc4CCC3C1CCC2=O (stereo partly drawn) [Estrone] | -24.4% |
| C[C@]12CC[C@@H]3c4ccc(O)cc4C[C@@H](CCCCCCCCC[S+]([O-])CCCC(F)(F)C(F)(F)F)[C@H]3[C@@H]1CC[C@@H]2O (stereo partly drawn) [Fulvestrant] | -14.2% |
| C[C@@H]1C\C2=C(CCC(=O)C2)/[C@H]3CC[C@@]4(C)[C@@H](CC[C@@]4(O)C#C)[C@H]13 [TIBOLONE] | -7.38% |
| Cc1c(C)n(Cc2ccc(-c3ccccc3C(=O)O)cc2)c2ccc(C(=O)N[C@@H](C)c3ccc([N+](=O)[O-])cc3)cc12 [SR-1664] | 14.2% |
| NC(=O)c1ncn([C@@H]2O[C@H](CO)[C@@H](O)[C@H]2O)c1N [Acadesine] | 7.93% |
| CC(C)C[C@@H]1NC(=O)[C@@H](C(C)C)NC(=O)[C@@H]2CCCN2C(=O)[C@@H](CC(=O)O)NC(=O)[C@@H](Cc2c[nH]c3ccccc23)NC1=O [BQ-123] | -9.37% |
| C[C@@H](c1ccc2nccn2c1)n1nnc2ncc(-c3cnn(C)c3)nc21 [Savolitinib] | -32.1% |
| COC(=O)N[C@H](C(=O)N1CCC[C@H]1c1ncc(-c2ccc(-c3ccc(-c4cnc([C@@H]5CCCN5C(=O)[C@@H](NC(=O)OC)C(C)C)[nH]4)cc3)cc2)[nH]1)C(C)C [Daclatasvir dihydrochloride] | -112% |
| NC(=O)c1ccc(I)c([N+](=O)[O-])c1 [Iniparib] | -14.6% |
| CN(CCOc1ccc(N[S+](C)(=O)[O-])cc1)CCc1ccc(N[S+](C)(=O)[O-])cc1 [Dofetilide] | -5.68% |
| CCOC(=O)[C@H](CCc1ccccc1)N[C@H]1CS[C@H](c2cccs2)CN(CC(=O)O)C1=O.Cl [Temocapril hydrochloride] | 10.5% |
| O=C(O)CCCCC(CCSCc1ccccc1)SCc1ccccc1 (stereo not drawn) [CPI-613] | -19.4% |
| COc1cc2ncnc(Nc3ccc(F)c(Cl)c3)c2cc1OCCCN1CCOCC1 [Gefitinib] | -15.4% |

Source: the supplement of paper PMC10290057
